Measured values reported in patent publication US8937167B2 (Washington University, priority 2009, dated 2015).
Several values for one entry are separate records, joined by “and”; a condition that tells them apart may be missing. Equal values may be shown once.

How the values were obtained:
UTI89 = experiment: Chronic cystitis mouse model, bladder titers after oral mannoside treatment; type: in vivo, E. coli (UPEC); host C3H/HeN mouse; settings: PO 50 mg/kg, 6 hours posttreatment, relative to PBS
Description: Mice were infected with the uropathogenic E. coli (UPEC) strain UTI89. Animals that established chronic infection were treated at day 12 post infection with 5 doses of 50 mg/kg of Mannoside 8 administered 8 h apart (mice treated with PBS in the same way were included as controls). Mice were sacrificed 48 h post initial dose and bladder titers were enumerated.
In order to determine the therapeutic potential of 6 for treating chronic UTIs, a unique preclinical murine model was adopted. In humans, the ultimate outcome of UPEC infection of the urinary tract ranges from asymptomatic bacteriuria to acute self-limiting infection to chronic/recurrent UTI. Similarly, the outcome of UTI in C3H/HeN mice ranges from self-limiting to long-lasting, chronic cystitis characterized by persistent, high titer bacteriuria (>10^4 colony forming units (CFU)/ml), high titer bacterial bladder burdens at sacrifice >2 weeks post-infection (wpi), chronic inflammation, and urothelial necrosis. […] Thus, C3H/HeN mice were infected with 1×10^7 CFU of UTI89 and mice developing chronic cystitis, as determined by persistent urine titers of […] through 2 weeks post infection (wpi), were PO treated at 2 wpi with 6 at a single dose of 100 or 50 mg/kg to evaluate the ability of mannoside to treat UTI. 6 hours post-treatment bacterial counts in the bladder were enumerated. […]

FimH = FimH (Escherichia coli, UniProt Q1R2J4);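 further: hemagglutination inhibition of guinea pig erythrocytes agglutinated by type 1 piliated uropathogenic E. coli via FimH mannose binding, quantified through serial dilutions of compound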
Description: In some embodiments, activity of the compound is measured using hemmagglutination titer of guinea pig red blood cells. Hemagglutination of guinea pig red blood cells by type1 piliated UPEC is dependent upon FimH mannose binding ability and serial dilutions allow a quantitative analysis.
Biological activity against FimH was evaluated using a guinea pig red blood cell-based hemagglutination (HA) assay (ref) in which the concentration of the mannoside on reducing agglutination by 50% was used as the primary endpoint (50% HA titer).
Hemagglutination of guinea pig red blood cells by type1 piliated UPEC is dependent upon FimH mannose binding ability. Serial dilutions allow a quantitative analysis using this assay.
Hemagglutination assays for mannose-sensitive agglutination of guinea pig red blood cells were performed as previously described.

CNC(=O)c1cc(C(=O)NC)cc(-c2ccc(O[C@H]3O[C@H](CO)[C@@H](O)[C@H](O)[C@@H]3O)c(C(F)(F)F)c2)c1 [Compound 10, N1,N3-dimethyl-5-[3-(trifluoromethyl)-4-[(2R,3S,4S,5S,6R)-3,4,5-trihydroxy-6-(hydroxymethyl)tetrahydropyran-2-yl]oxy-phenyl]benzene-1,3-dicarboxamide]
reduction in bladder bacterial counts (UTI89): 4 log and 3 log | fold more potent in vitro (FimH; 10 relative to 8, Examples 25-29 numbering): 8 fold | HAI (FimH; Examples 25-29 numbering): 8 nM | fold improvement (HAI) (FimH; over butyl-α-D-mannoside): 15,000 fold | fold better (HAI) (FimH; than lead 6, Examples 25-29 numbering): 50 fold
